Experimental data published in paper PMC10812557, “Progressive Design of a Ranatuerin-2 Peptide from Amolops wuyiensis: Enhancement of Bioactivity and In Vivo Efficacy” (Antibiotics, 2023).
“And” between values parts separate entries of the source, which are not always exact repeats. Equal values may be shown once. Read-outs that look alike come from different tables or passages of the source. Peptide text beside a SMILES is read from it.

Experiments:
[1] = tested on: MRSA (NCTC 12493); assay type: cell-based, methicillin-resistant Staphylococcus aureus
Protocol: (§1) As a previous study described in detail, the ability of R2AW and its analogues to inhibit and eradicate the formation of biofilm was investigated. The MBIC is the lowest concentration which inhibits the formation of biofilm. The MBEC is the minimum concentration that eradicates biofilm. Six bacterial strains were used, as described above. Briefly, the bacteria were cultured and then diluted to 5 × 10^5 CFU/mL. In MBIC assays, 1 μL of each concentration of R2AW and its analogues (ranging from 512 × 10^2 μM to 100 μM) was mixed with 99 μL of diluted bacterial suspension in a 96-well plate for 16-20 h at 37 °C. As for MBEC assays, 100 μL of cultured bacteria were seeded in a 96-well plate and incubated on the shaking incubator at 37 °C overnight for biofilm formation. Subsequently, each well was rinsed twice with 100 μL sterile PBS to remove planktonic cells, and then replaced with 100 μL of each concentration (ranging from 512 μM to 1 μM) of peptides. After 24 h incubation, the biofilm was washed twice with 100 μL of PBS and fixed with methanol. Next, the same volume of 0.1% crystal violet solution (Sigma-Aldrich, Gillingham, UK) was added to each well to stain the biofilm. After that, 100 μL of 30% of acetic acid (Sigma-Aldrich, Gillingham, UK) was transferred to each well for dissolution. The solutions were transferred into a new 96-well plate and the absorbances of wells was monitored using a Synergy HT plate reader set to 595 nm.

[2] = tested on: P. aeruginosa (ATCC 9027); assay type: cell-based, Pseudomonas aeruginosa
Protocol: as §1

[3] = Haemolysis assay; assay type: cell-based, horse
Protocol: The haemolytic activity of R2AW and its five designed analogues on mammalian erythrocytes was evaluated using 2% defibrinated horse blood (TCS Biosciences Ltd., Buckingham, UK) as per a previous report. Two mL of fresh horse blood was transferred into a 50 mL tube and then washed with sterilised PBS. The supernatant was removed after centrifuging (930× g, 5 min). The centrifugation procedure was repeated until the supernatant was clear. After washing, the red blood cell pellet was diluted with PBS to achieve a 4% (v/v) erythrocyte suspension. The concentrations of R2AW and its designed derivatives were prepared from 512 μM to 2 μM by two-fold dilution in sterilised PBS. One hundred µL of red blood cell suspension was added into a 1.5 mL tube treated with the same volume of each concentration of peptide and incubated at 37 °C for 2 h. The red blood cell suspensions treated with 0.2% Triton X-100 and with PBS were regarded as positive control and negative control. After centrifugation at 930× g for 10 min, 100 μL of suspension was transferred to a 96-well plate, and the absorbance was obtained by use of a Synergy HT plate reader. The degree of haemolysis could be calculated using the following formula: Haemolysis = (absorbance (experimental groups) − absorbance (negative control))/(absorbance (positive control) − absorbance (negative control)) × 100%.

[4] = tested on: E. faecium (NTCC 12697); assay: microbe, parasite or virus in culture; assay type: cell-based
Description: (§2) The MIC and MBC assays were used to assess the inhibitory activities of all 5 analogues of R2AW on the growth of planktonic microorganisms. The MIC is the lowest concentration that prevents the viable growth of bacteria. The MBC is the lowest concentration that results in bacterial death. Six microorganisms were used to detect the antimicrobial activity of peptides, including Gram-positive bacteria S. aureus (NCTC 10788), MRSA (NCTC 12493), Enterococcus faecalis (E. faecalis) (NCTC 12697), Gram-negative bacteria E. coli […], Klebsiella pneumoniae (K. pneumoniae) (ATCC 43816), and Pseudomonas aeruginosa (P. aeruginosa) (ATCC 9027). According to the assay described previously, the microorganisms were inoculated at 37 °C overnight and diluted to 5 × 10^5 CFU/mL after reaching the logarithmic growth period. The peptide stock solution at the concentration of 512 × 10^2 μM was prepared and diluted to 100 μM by a 2-fold dilution. One μL of each concentration of peptide solution was incubated with 99 μL of bacterial subculture in the 96-well plate for 18 h at 37 °C. The absorbance was determined at a wavelength of 550 nm using a Synergy HT plate reader (Bio Tek, Washington, DC, USA). […] As for those wells that were clearly visible, 20 μL of the solution was dropped onto the Mueller Hinton agar (MHA) dish and then incubated at 37 °C overnight. The lowest concentration with no colony growth was determined as the MBC.

[5] = tested on: MRSA (NCTC 12493); assay: microbe, parasite or virus in culture; assay type: cell-based
Description: as §2

[6] = tested on: S. aureus (NCTC 10788); assay: microbe, parasite or virus in culture; assay type: cell-based
Description: as §2

[7] = tested on: E. coli (ATCC 8739); assay type: cell-based, Escherichia coli
Protocol: as §1

[8] = tested on: E. faecium (NTCC 12697); assay type: cell-based
Protocol: as §1

[9] = tested on: S. aureus (NCTC 10788); assay type: cell-based, Staphylococcus aureus
Protocol: as §1

[10] = tested on: K. pneumoniae (ATCC 43816); assay type: cell-based, Klebsiella pneumoniae
Protocol: as §1

[11] = tested on: K. pneumoniae (ATCC 43816); assay type: cell-based; settings: ATCC 43816, 18 h
Description: as §2

[12] = tested on: E. coli (ATCC 8739); assay type: cell-based; settings: ATCC 8739, 18 h
Description: as §2

[13] = tested on: P. aeruginosa (ATCC 9027); assay type: cell-based; settings: ATCC 9027, 18 h
Description: as §2

[14] = tested on: HCT116; assay type: cell-based, human; settings: 24 h
Protocol: (§3) Five human cancer cell lines of non-small-cell lung cancer H838, human prostate carcinoma PC-3, human neuronal glioblastoma U251MG, human breast cancer cell MCF-7, and colorectal carcinoma HCT116 were used to detect the antiproliferative abilities of R2AW and its five analogues. According to the procedures in a previous article, cells (8000 cells/well) were seeded into the 96-well tissue culture plates and incubated at 37 °C with 5% CO2 overnight. The solutions of R2AW and its analogues at concentrations of 10^−4 M to 10^−9 M were prepared in the serum-free medium. Next, cells in each well were treated with 100 μL of each peptide solution for 24 h. Subsequently, 10 μL of 5 mg/mL MTT (3-(4, 5-Dimethylthiazol-2-yl-)-2, 5-Diphehyltetrazolium Bromide) was added to each well followed by 37 °C incubation for 2 h. After that, the liquid in each well was removed and 100 μL of DMSO was added to dissolve the purple formazan. The plate was placed on a shaking incubator for 10 min, and the absorbance was detected at 550 nm using a Synergy HT plate reader (Biotech, Minneapolis, MN, USA).

[15] = tested on: H838; assay type: cell-based, human; settings: 24 h
Protocol: as §3

[16] = tested on: PC-3; assay type: cell-based, human; settings: 24 h
Protocol: as §3

[17] = tested on: U251MG; assay type: cell-based, human; settings: 24 h
Protocol: as §3

[18] = tested on: MCF-7; assay type: cell-based, human; settings: 24 h
Protocol: as §3

[19] = tested on: MRSA (NCTC 12493); assay: Time–killing assay; assay type: cell-based, methicillin-resistant Staphylococcus aureus; settings: control antibiotic, 3 h incubation
Protocol: (§4) S. aureus (NCTC 10788), E. coli (ATCC 8739), MRSA (NCTC 12493), and P. aeruginosa (ATCC 9027) were used in this assay. Treatments of 2 × MIC, 1 × MIC, and 0.5 × MIC of [Lys^4,19, Leu^20]R2AW(1-22)-NH2 were prepared and mixed with 198 μL of diluted bacteria (5 × 10^5 CFU/mL). At each time point (0, 10, 20, 30, 60, 90, 120, and 180 min), 10 μL of peptide and bacteria mixture was dropped onto the MHA plate. After overnight incubation, the number of bacterial colonies was calculated. The CFU/mL could be calculated using the formula CFU/mL = (Number of colonies × dilution factor)/volume of culture.

[20] = tested on: S. aureus (NCTC 10788); assay: Time–killing assay; assay type: cell-based, Staphylococcus aureus; settings: control antibiotic, 3 h incubation
Protocol: as §4

[21] = Staphylococcus aureus, NCTC10788

Structure (SMILES) | MBEC [2] | MBIC [2] | MBC ([4]; NTCC 12697, 18 h) | MBC ([5]; MRSA (NCTC 12493)) | MIC ([5]; MRSA (NCTC 12493)) | MBC ([6]; NCTC 10788, 18 h) | MIC ([6]; NCTC 10788, 18 h) | MBEC [7] | MBIC [7] | MBEC [8] | MBIC [8] | MBEC [9] | MBIC [9] | MBEC [10] | MBIC [10] | MBC [11] | MIC [11] | MBC [12] | MIC [12] | MBC [13] | further results
CC[C@H](C)[C@H](NC(=O)[C@H](CCCCN)NC(=O)[C@H](CO)NC(=O)[C@H](CCCCN)NC(=O)[C@H](CC(C)C)NC(=O)[C@H](CCCCN)NC(=O)[C@H](CC(=O)O)NC(=O)[C@H](CC(C)C)NC(=O)[C@H](CC(C)C)NC(=O)[C@@H](NC(=O)[C@H](C)NC(=O)[C@H](C)NC(=O)[C@@H](NC(=O)[C@H](CC(N)=O)NC(=O)[C@H](CCCCN)NC(=O)[C@H](C)NC(=O)[C@@H](NC(=O)[C@H](CC(N)=O)NC(=O)[C@H](CCCCN)NC(=O)[C@H](C)NC(=O)[C@@H](NC(=O)[C@H](CC(=O)O)NC(=O)[C@H](CCSC)NC(=O)[C@H](Cc1ccccc1)NC(=O)CN)[C@@H](C)O)C(C)C)C(C)C)[C@@H](C)O)C(=O)N[C@H](C(=O)NCC(=O)NCC(=O)N[C@@H](CO)C(=O)O)[C@@H](C)O [[Ser^23,29]R2AW] (H-GFMDTAKNVAKNVAATLLDKLKSKITGGS-OH) | >512 µM | >512 µM | 1526 mg/L | 1526 mg/L | 763 mg/L | 191 mg/L | 64 µM | 512 µM | 128 µM | >512 µM | >512 µM | > 512 µM | 128 µM | >512 µM | >512 µM | 1526 µg/mL | 763 µg/mL | 381 µg/mL | 64 µM | > 1526 µg/mL | MBEC ([1]; MRSA (NCTC 12493)): > 512 µM; MBIC ([1]; MRSA (NCTC 12493)): 256 µM; hemolysis at 2 h ([3]; horse erythrocytes (washed red blood cell suspension), horse erythrocytes, up to 256 μM): ~10%; MIC [13]: 1526 µg/mL; IC50 [14]: 31.6 µM; IC50 [15]: 19.3 µM; IC50 [16]: 17.4 µM; IC50 [17]: 37.3 µM; IC50 [18]: 62.7 µM
CN[C@H](CC(C)C)C(=O)N[C@H]1C(=O)N[C@@H](CC(N)=O)C(=O)N[C@H]2C(=O)N[C@H]3C(=O)N[C@H](C(=O)N[C@H](C(=O)O)c4cc(O)cc(O)c4-c4cc3ccc4O)[C@H](O)c3ccc(c(Cl)c3)Oc3cc2cc(c3O[C@@H]2O[C@H](CO)[C@@H](O)[C@H](O)[C@H]2O[C@H]2C[C@](C)(N)[C@H](O)[C@H](C)O2)Oc2ccc(cc2Cl)[C@H]1O [Vancomycin, reference compound] | – | – | – | – | – | – | – | – | – | – | – | – | – | – | – | – | – | – | – | – | killing effect in time–killing curve [19]: could only inhibit the growth of bacteria; MBC ([4]; Enterococcus faecium): > 92.7 µg/mL and > 64 µM; MIC ([4]; Enterococcus faecium): 0.7 µg/mL and 0.5 µM; MBC ([5]; Staphylococcus aureus): 0.7 µg/mL and 0.5 µM; MIC ([5]; Staphylococcus aureus): 0.7 µg/mL and 0.5 µM; MBC [6, 21]: 0.7 µg/mL and 0.5 µM; MIC [6, 21]: 0.7 µg/mL and 0.5 µM; killing effect in time–killing curve [20]: could only inhibit the growth of bacteria
CSCC[C@H](NC(=O)[C@H](Cc1ccccc1)NC(=O)CN)C(=O)N[C@@H](CCCCN)C(=O)N[C@H](C(=O)N[C@@H](Cc1c[nH]c2ccccc12)C(=O)N[C@@H](CCCCN)C(=O)N[C@@H](CC(N)=O)C(=O)N[C@H](C(=O)N[C@@H](Cc1c[nH]c2ccccc12)C(=O)N[C@@H](CCCCN)C(=O)N[C@@H](CC(N)=O)C(=O)N[C@H](C(=O)N[C@@H](C)C(=O)N[C@@H](C)C(=O)N[C@H](C(=O)N[C@@H](CC(C)C)C(=O)N[C@@H](CC(C)C)C(=O)N[C@@H](CCCCN)C(=O)N[C@@H](CC(C)C)C(=O)N[C@@H](CC(C)C)C(=O)N[C@@H](CCCCN)C(N)=O)[C@@H](C)O)C(C)C)C(C)C)[C@@H](C)O [[Trp^6,10]R2AW(1-22)-NH2] (H-GFMKTWKNVWKNVAATLLKLLK-NH2; N-terminus assumed) | 512 µM | 32 µM | 41.4 mg/L | 20.7 mg/L | 10.4 mg/L | 20.7 mg/L | 10.4 mg/L | 256 µM | 4 µM | > 512 µM | 8 µM | 512 µM | 8 µM | 256 µM | 16 µM | 82.8 µg/mL | 41.4 µg/mL | 41.4 µg/mL | 20.7 µg/mL | 166 µg/mL | MBEC ([1]; NCTC 12493): > 512 µM; MBIC ([1]; NCTC 12493): 8 µM; hemolysis at 2 h, 2 µM ([3]; horse): ~20%; MIC ([4]; NTCC 12697, 18 h): 20.7 mg/L; MIC [13]: 82.8 µg/mL; IC50 [14]: 5.38 µM; IC50 [15]: 3.41 µM; IC50 [16]: 1.73 µM; IC50 [17]: 3.35 µM; IC50 [18]: 5.33 µM
